Our source for the AC50 and activity change, negative = cytotoxicity values is PubChem BioAssay AID743146 (Broad Institute, 2013).

Activity calls are given as the source filed them.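 Rule for the calls: active = fitted half-maximal potency for cell killing at or below the highest valid dose tested for that sample; inconclusive = flat curve with 30 to 70% viability loss, or unreliable fit; inactive = the rest.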

The test system of one assay is A549 viability, CellTiter-Glo ATP luminescence, 72 h. Briefly: viability loss in A549 lung cancer cells – cell-based, CellTiter-Glo luminescence, dry powder, set 3, cytotoxicity control, dose response (AID 743146).
Conditions: not given
In general terms: ATP-based viability assays read luminescence as a measure of living cells.
As a reminder, the AC50 is the concentration at which the activity in the assay is half-maximal. For the compound `O=C(CCNC(=O)c1ccc(Cl)cc1)NC1CCCc2ccccc21` (stereo not drawn), the AC50 is 26 µM.

System in another assay: not listed separately
Described as above. The settings on record: A549 viability, CellTiter-Glo ATP luminescence, 72 h; at 26 µM (top of the series).
For `CC(NC(=O)CCNC(=O)c1ccc(Cl)cc1)c1ccc(F)cc1` (stereo not drawn), the activity change, negative = cytotoxicity is 1.56% (inactive).

With `O=C(CCNC(=O)c1ccc(Cl)cc1)N[C@@H]1CCc2ccccc21`, the activity change, negative = cytotoxicity is 0.571% (inactive).

Regarding `O=C(Cc1ccc(Cl)cc1)NCCC(=O)N[C@@H]1CCCc2ccccc21`, the activity change, negative = cytotoxicity is -2.28% (inactive).

For the compound `Cc1cccc(C(=O)NCCC(=O)NC2CCCc3ccccc32)c1` (stereo not drawn), the activity change, negative = cytotoxicity is 9.52% (inactive).

On to `O=C(CNC(=O)c1ccc(C(F)(F)F)cc1)N[C@@H]1CCCc2ccccc21`, for which the activity change, negative = cytotoxicity is 11% (inactive).

`O=C(CCCNC(=O)c1ccc(Cl)cc1)N[C@@H]1CCCc2ccccc21`: the activity change, negative = cytotoxicity is -5.3% (inactive).

With `O=C(CCn1cnc2ccccc2c1=O)NC1CCCc2ccccc21` (stereo not drawn), the activity change, negative = cytotoxicity was -2.5% (inactive).

With `COc1ccccc1C(=O)NCCC(=O)NC1CCCc2ccccc21` (stereo not drawn), the activity change, negative = cytotoxicity was 5.71% (inactive).

Turning to `CN(C(=O)CCNC(=O)c1ccc(F)cc1F)C1CCCc2ccccc21` (stereo not drawn), the activity change, negative = cytotoxicity was 8.93% (inactive).

As for `O=C(CNC(=O)c1ccc(OC(F)(F)F)cc1)N[C@@H]1CCCc2ccccc21`, the activity change, negative = cytotoxicity was 8.39% (inactive).

`CC(NC(=O)CCNC(=O)c1ccc(Cl)cc1)c1ccc2c(c1)OCO2` (stereo not drawn): the activity change, negative = cytotoxicity was 7.31% (inactive).

In the case of `O=C(NC1CCOc2ccccc21)C1CCCN(C(=O)c2ccc(Cl)cc2)C1` (stereo not drawn), the activity change, negative = cytotoxicity was 11.1% (inactive).

Consider `O=C(CCNC(=O)c1ccc(F)cc1)N[C@@H]1CCCc2ccccc21`, for which the activity change, negative = cytotoxicity was -10.3% (inactive).

Consider `O=C(NC1CCc2ccccc21)C1CCCN(C(=O)c2ccc(Cl)cc2)C1` (stereo not drawn), for which the activity change, negative = cytotoxicity is -1.86% (inactive).

Take `CC(CC(=O)N(C)C1CCCc2ccccc21)NC(=O)c1ccccc1` (stereo not drawn): the activity change, negative = cytotoxicity is -7.34% (inactive).

With `O=C(CCCNC(=O)c1ccc(C(F)(F)F)cc1)N[C@@H]1CCCc2ccccc21`, the activity change, negative = cytotoxicity was -7.77% (inactive).

Take `O=C(CCNC(=O)c1ccc(Cl)cc1)NC1CCCCC1`: the activity change, negative = cytotoxicity is 8.46% (inactive).

Take `CC(=O)NCCC(=O)N[C@@H]1CCCc2ccccc21`: the activity change, negative = cytotoxicity is 4.17% (inactive).

For `COc1ccccc1C(C)NC(=O)CCNC(=O)c1ccc(Cl)cc1` (stereo not drawn), the activity change, negative = cytotoxicity is 10% (inactive).

Consider `O=C(CNC(=O)c1ccc(Cl)cc1)N[C@@H]1CCCc2ccccc21`, for which the activity change, negative = cytotoxicity is -3.21% (inactive).

In the case of `CC(C)(C)OC(=O)NCCC(=O)N[C@@H]1CCCc2ccccc21`, the activity change, negative = cytotoxicity is 6.05% (inactive).

Regarding `O=C(CCCNC(=O)c1ccc(OC(F)(F)F)cc1)N[C@@H]1CCCc2ccccc21`, the activity change, negative = cytotoxicity is 4.74% (inactive).

`NCCC(=O)N[C@@H]1CCCc2ccccc21`: the activity change, negative = cytotoxicity was 11.5% (inactive).

With `CC(c1ccccc1)N(C)C(=O)CCNC(=O)c1ccc(Cl)cc1` (stereo not drawn), the activity change, negative = cytotoxicity was 14% (inactive).

For the compound `O=C(CCNC(=O)c1ccccc1Cl)NC1CCCc2ccccc21` (stereo not drawn), the activity change, negative = cytotoxicity was -2% (inactive).

Consider `C[C@@H](NC(=O)CCNC(=O)c1ccc(Cl)cc1)c1ccccc1`, for which the activity change, negative = cytotoxicity was -3.03% (inactive).

For the compound `O=C(CCNC(=O)c1ccccc1)N[C@@H]1CCCc2ccccc21`, the activity change, negative = cytotoxicity is -10.3% (inactive).

Turning to `O=C(CNC(=O)c1ccc(Cl)c(Cl)c1)N[C@@H]1CCCc2ccccc21`, the activity change, negative = cytotoxicity was -1.02% (inactive).

`O=C(CCCNC(=O)c1ccc(Cl)c(Cl)c1)N[C@@H]1CCCc2ccccc21`: the activity change, negative = cytotoxicity is -2.59% (inactive).

`CC(C)(C)OC(=O)NCCC(=O)N[C@H]1CCCc2ccccc21`: the activity change, negative = cytotoxicity was -0.649% (inactive).

`CC(CC(=O)NC1CCCc2ccccc21)NC(=O)c1ccccc1` (stereo not drawn): the activity change, negative = cytotoxicity is 0.372% (inactive).

For the compound `CC(NC(=O)C1CCCN(C(=O)c2ccc(Cl)cc2)C1)c1ccccc1` (stereo not drawn), the activity change, negative = cytotoxicity is 5.97% (inactive).
